In ChEMBL document CHEMBL5050859, “Gpx4 inhibitors, pharmaceutical compositions thereof, and their use for treating gpx4-mediated diseases” (2021):

Columns and labels:
Type in all cases: functional, cell-based
Details in all cases: Huh-7, 24 h
Huh-7 [1] = assay: Antiproliferative activity against human Huh-7 cells after 24 hrs by Cell Titer Glo assay
Huh-7 [2] = assay: Antiproliferative activity against human Huh-7 cells in presence of 1 uM ferrostatin-1 measured after 24 hrs by Cell Titer Glo assay
Huh-7 [3] = assay: Antiproliferative activity against human Huh-7 cells in presence of 1 uM liproxstatin-1 measured after 24 hrs by Cell Titer Glo assay

| SMILES | EC50 (Huh-7 [1]) | also measured |
| --- | --- | --- |
| C#CC(=O)N(c1ccc(O)cc1)C(C(=O)NCc1ccccc1)c1cccc(N)c1 (centres undefined) | 2 µM | – |
| C[Si](C)(C)C#CC(=O)N(c1cccc(Cl)c1)C1(C(=O)NCc2cccc(Cl)c2)CCOCC1 | ≤ 0.1 µM | – |
| C#CC(=O)N(c1ccc(NS(C)(=O)=O)cc1)C(C(=O)NCc1ccccc1)c1ccc(N)cc1 (centres undefined) | 2 µM | – |
| C#CC(=O)N(c1ccc2c(c1)ncn2C)C1(C(=O)NCc2ccccc2)CCOCC1 | 0.5 µM | – |
| C#CC(=O)N(c1cccc(N)c1)C(C(=O)NCc1ccccc1)c1ccc(N)cc1 (centres undefined) | 0.5 µM | – |
| C=CC(=O)N(c1cccc(Cl)c1)C1(C(=O)NCc2ccccc2)CCOCC1 | > 10 µM | – |
| C#CC(=O)N(c1ccc(N)cc1)C(C(=O)NC(C)(C)C)c1cccc(N)c1 (centres undefined) | 2 µM | – |
| COc1ccc(N(C(=O)CCl)C(C)C(=O)NCCc2ccccc2)cc1Cl (centres undefined) | 0.5 µM | – |
| Nc1ccc(N(C(=O)CCl)C(C(=O)NCCc2ccccc2)c2cccs2)cc1 (centres undefined) | 2 µM | – |
| C=CC(=O)N(Cc1cccc(O)c1)C1(C(=O)NCc2ccccc2)CCOCC1 | > 10 µM | – |
| C#CC(=O)N(c1ccc(S(N)(=O)=O)cc1)C(C(=O)NCc1ccccc1)c1ccc(N)cc1 (centres undefined) | > 10 µM | – |
| C#CC(=O)N(c1ccc(S(C)(=O)=O)cc1)C(C(=O)NC(C)(C)C)c1ccc(N)cc1 (centres undefined) | 2 µM | – |
| Nc1ccc(C(C(=O)NCCc2ccccc2)N(C(=O)CCl)c2cccc(Cl)c2)cc1 (centres undefined) | 0.5 µM | – |
| CC(C)(C)NC(=O)C(c1ccc([N+](=O)[O-])cc1)N(C(=O)CCl)c1ccc(Cl)cc1 (centres undefined) | 2 µM | – |
| Cn1ncc2cc(N(C(=O)CCl)C3(C(=O)NCc4ccccc4)CCOCC3)ccc21 | 0.5 µM | – |
| C#CC(=O)N(c1ccc(N)cc1)C(C(=O)NC(C)(C)C)c1ccc(N)cc1 (centres undefined) | 2 µM | – |
| C#CC(=O)N(c1ccc(CO)cc1)C(C(=O)NC(C)(C)C)c1ccc(N)cc1 (centres undefined) | 2 µM | – |
| C#CC(=O)N(c1cccc(Cl)c1)[C@]1(C(=O)NCc2ccccc2)CC[C@@H](O)CC1 | 0.1 µM | – |
| C#CC(=O)N(c1ccc(OC)cc1)C(C(=O)NC(C)(C)C)c1cccc(N)c1 (centres undefined) | 0.5 µM | – |
| C#CC(=O)N(c1cccc(Cl)c1)C1(C(=O)NCC(=O)NCCO)CCOCC1 | 2 µM | – |
| COc1cccc(N(C(=O)CCl)C(C(=O)NCCc2ccccc2)c2ccc([N+](=O)[O-])cc2)c1 (centres undefined) | 0.1 µM | – |
| O=C(CCl)N(c1ccc2c(c1)OCO2)C1(C(=O)NCc2ccccc2)CCOCC1 | 2 µM | – |
| O=C(C#CCO)N(c1cc(Cl)ccc1Cl)C1(C(=O)NCc2ccccc2)CCOCC1 | > 10 µM | – |
| C=CC(=O)N(c1ccc2c(cnn2C)c1)C1(C(=O)NCc2ccccc2)CCOCC1 | > 10 µM | – |
| CC#CC(=O)N(c1ccc2c(cnn2C)c1)C1(C(=O)NCc2ccccc2)CCCC(C(=O)OC)C1 (centres undefined) | > 10 µM | – |
| C#CC(=O)N(c1cccc(CO)c1)C(C(=O)NCc1ccccc1)c1cccc(N)c1 (centres undefined) | 2 µM | – |

The next lines start with results.

| EC50 (Huh-7 [1]) | SMILES | also measured |
| --- | --- | --- |
| ≤ 0.1 µM | C#CC(=O)N(c1cccc(Cl)c1)C1(C(=O)NCc2ccccc2)CCOCC1 | EC50 (Huh-7 [2]): > 10 µM; EC50 (Huh-7 [3]): > 10 µM |
| 0.1 µM | C#CC(=O)N(c1ccc2scnc2c1)C1(C(=O)NCc2ccccc2)CCOCC1 | – |
| 0.1 µM | O=C(NCCc1ccccc1)C(c1ccc([N+](=O)[O-])cc1)N(C(=O)CCl)c1cccc(Cl)c1 (centres undefined) | – |
| 0.1 µM | C#CC(=O)N(c1ccc2[nH]ncc2c1)C1(C(=O)NCc2ccccc2)CCOCC1 | – |
| 0.1 µM | C#CC(=O)N(c1cccc(Cl)c1)C1(C(=O)NCC(=O)N2CCCC(C(=O)OC)C2)CCOCC1 (centres undefined) | – |
| 0.1 µM | C#CC(=O)N(c1ccc2nncn2c1)C(C(=O)NCc1ccccc1)c1ccccc1 (centres undefined) | – |
| ≤ 0.1 µM | C#CC(=O)N(c1cc(Cl)ccc1F)C(C(=O)NCc1ccccc1)c1cccc(N)c1 (centres undefined) | – |
| ≤ 0.1 µM | C#CC(=O)N(c1cccc2nsnc12)C1(C(=O)NCc2ccccc2)CCOCC1 | – |
| 0.1 µM | C#CC(=O)N(c1cccc(OC)c1)C(C(=O)NCc1ccccc1)c1cccc(N)c1 (centres undefined) | – |
| ≤ 0.1 µM | C#CC(=O)N(c1ccc(C(=O)OC)cc1)C(C(=O)NCc1ccccc1)c1cccc(N)c1 (centres undefined) | – |
| ≤ 0.1 µM | C#CC(=O)N(c1ccc(Cl)cc1)C(C(=O)NC(C)(C)C)c1cccc(N)c1 (centres undefined) | – |
| ≤ 0.1 µM | C#CC(=O)N(c1cccc(Cl)c1)C1(C(=O)NCc2ccccc2)CCC(F)(F)CC1 | – |
| ≤ 0.1 µM | C#CC(=O)N(c1cc(Cl)ccc1Cl)C(C(=O)NCc1ccccc1)c1ccccc1 (centres undefined) | – |
| ≤ 0.1 µM | C#CC(=O)N(c1ccc(OC)c(Cl)c1)C(C(=O)NC(C)(C)C)c1ccc(N)cc1 (centres undefined) | – |
| 0.1 µM | C#CC(=O)N(c1cccc(Cl)c1)C(C(=O)NCc1ccccc1)C1CCC(C(=O)OC)CC1 (centres undefined) | – |
| ≤ 0.1 µM | C#CC(=O)N(c1cccc(O)c1)C(C(=O)NCc1ccccc1)c1cccc(N)c1 (centres undefined) | – |
| 0.1 µM | C#CC(=O)N(c1cccc(Cl)c1)C(C(=O)NCc1ccccc1)c1cccc(CCO)c1 (centres undefined) | – |
| ≤ 0.1 µM | C#CC(=O)N(c1cccc(Cl)c1)C(C(=O)NCc1ccccc1C#N)c1ccccc1 (centres undefined) | – |
| ≤ 0.1 µM | C#CC(=O)N(c1cc(Cl)ccc1F)C(C(=O)NCc1ccccc1)c1ccc(N)cc1 (centres undefined) | – |
| ≤ 0.1 µM | C#CC(=O)N(c1ccc2c(cnn2C)c1)C1(C(=O)NCc2ccccc2)CCOCC1 | – |
| ≤ 0.1 µM | C#CC(=O)N(c1ccc2c(cnn2C)c1)C1(C(=O)NCc2ccccc2)CCCC(C(=O)OC)C1 (centres undefined) | – |
| ≤ 0.1 µM | C#CC(=O)N(c1ccc2c(c1)C(=O)OC2)C(C(=O)NCc1ccccc1)c1ccccc1 (centres undefined) | – |
| ≤ 0.1 µM | C#CC(=O)N(c1ccc(C(=O)OC)cc1)C(C(=O)NC(C)(C)C)c1ccc(N)cc1 (centres undefined) | – |
| ≤ 0.1 µM | C#CC(=O)N(c1ccc2scnc2c1)C(C(=O)NCc1ccccc1)c1ccccc1 (centres undefined) | – |
| ≤ 0.1 µM | C#CC(=O)N(c1cccc(Cl)c1F)C(C(=O)NCc1ccccc1)c1ccc(N)cc1 (centres undefined) | – |
| ≤ 0.1 µM | C#CC(=O)N(c1ccc(C#N)cc1)C(C(=O)NCc1ccccc1)c1cccc(N)c1 (centres undefined) | – |
